Patent US7994162B2, “2-alkoxy-3,4,5-trihydroxy-alkylamide-benzazepines, the preparation and use thereof, and compositions containing the same” (Sanofi-Aventis, priority 2006, dated 2011)

System: HCT116 cells
Experiment: Inhibition of the cell proliferation of HCT116 cells (14C-thymidine incorporation)
Format: cell-based
Settings: Homo sapiens, HCT-116, 96 hours
Procedure: The antiproliferative activity of the products of the examples of Table 1 was determined by measuring the inhibition of the cell proliferation of HCT116 cells. The cells are seeded into a cell culture medium at a concentration of 10 000 cells per well, in 0.17 ml of medium, and 20 μl of test product, at various concentrations and 10 μl of thymidine [methyl-14C] (100 μCi/ml—specific activity 47.90 mCi/mmol; NEN Technologies reference NEC568 batch 3550-001) are added and the cells are then incubated at 37° C. and 5% CO2.
Medium used for the HCT116 cell culture: DMEM medium, 2 mM L-glutamine, 200 IU/ml penicillin, 200 μg/ml streptomycin and 10% (V/V) foetal calf serum (Life Technologies).
After 96 hours, the ^14C-thymidine incorporation is counted in a 1450 Microbeta Wallac Trilux liquid scintillation counter. The results R are expressed in cpm (counts per minute) and converted to percentage growth inhibition GI % by firstly subtracting the mean of the number of cpm of the wells without cells B and then dividing by the number of cpm of the wells of the nontreated cells C comprising 20 μl of product diluting medium containing 1% of ethanol (GI %=(R−B)×100/C %).
The IC50 values are calculated using equation 205 of the XLFit software (IDBS company, UK) by nonlinear regression analysis using the Marquardt algorithm (Donald W. MARQUARDT, J. Soc. industry. appl, vol 11, No. 2, June, 1963).

Structure (SMILES)	IC50 [µM]
CO[C@@H](C(=O)NC1CCc2ccccc2N(Cc2cc(F)cc(F)c2)C1=O)[C@H](O)[C@@H](O)[C@H](O)/C=C/C(C)(C)C (stereo partly shown) [Example 1]	0.014
CO[C@@H](C(=O)NC1CCc2ccccc2N(C)C1=O)[C@H](O)[C@@H](O)[C@H](O)/C=C/C(C)(C)C (stereo partly shown) [Example 2]	0.015
CO[C@@H](C(=O)NC1CCc2cc(Br)ccc2NC1=O)[C@H](O)[C@@H](O)[C@H](O)/C=C/C(C)(C)C (stereo partly drawn) [Example 3, N-(7-bromo-2-oxo-2,3,4,5-tetrahydro-1H-1-benzazepin-3-yl)-(E)-(2R,3R,4S,5R)-3,4,5-trihydroxy-2-methoxy-8,8-dimethylnon-6-enamide]	0.058
CO[C@@H](C(=O)N[C@H]1CCc2cc(Br)ccc2NC1=O)[C@H](O)[C@@H](O)[C@H](O)/C=C/C(C)(C)C [Example 3a]	0.032
CO[C@@H](C(=O)NC1CCc2cc(-c3ccccc3)ccc2NC1=O)[C@H](O)[C@@H](O)[C@H](O)/C=C/C(C)(C)C (stereo partly drawn) [Example 4, N-(7-phenyl-2-oxo-2,3,4,5-tetrahydro-1H-1-benzazepin-3-yl)-(E)-(2R,3R,4S,5R)-3,4,5-trihydroxy-2-methoxy-8,8-dimethylnon-6-enamide]	0.075
CO[C@@H](C(=O)N[C@H]1CCc2cc(-c3ccccc3)ccc2NC1=O)[C@H](O)[C@@H](O)[C@H](O)/C=C/C(C)(C)C [Example 4a, (2R,3R,4S,5R,6E)-3,4,5-trihydroxy-2-methoxy-8,8-dimethyl-N-[(3S)-2-oxo-7-phenyl-2,3,4,5-tetrahydro-1H-1-benzazepin-3-yl]non-6-enamide]	0.014

System: not listed separately
Experiment: in vitro
Settings: human, Caco-2

Structure (SMILES)	Papp [nm/s]
CO[C@@H](C(=O)N[C@H]1CCc2cc(-c3ccccc3)ccc2NC1=O)[C@H](O)[C@@H](O)[C@H](O)/C=C/C(C)(C)C [Example 4a, (2R,3R,4S,5R,6E)-3,4,5-trihydroxy-2-methoxy-8,8-dimethyl-N-[(3S)-2-oxo-7-phenyl-2,3,4,5-tetrahydro-1H-1-benzazepin-3-yl]non-6-enamide]	48
